pIC50: −log10 of the molar value.
test system: IL-1β production in PMA-differentiated THP-1 cells; assay: IL-1β production in PMA-differentiated THP-1 cells stimulated with gramicidin (hTHP-1 assay, 2% fetal bovine serum; Procedures 1-3); type: cell-based, human; settings: Homo sapiens, THP-1, Table B3; hTHP-1 assay containing 2% fetal bovine serum, gramicidin stimulation, IL-1β readout; read-out: hTHP-1 IC50
Outline: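 PMA-primed THP-1 cells (20 ng/ml PMA, 16-18 h) in RPMI with 2% FBS were pre-incubated with compounds for 1 h, from 100 μM downward in 3-fold steps (0.37% DMSO final), then stimulated with 5 μM gramicidin for 2 h. IL-1β in the supernatant was quantified by HTRF.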

Row | pIC50 | Structure (SMILES)
1 | 7.40 to 8.10 | CNC(c1ccc(S(N)(=O)=NC(=O)Nc2c3c(cc4c2CC4)CCC3)s1)C1CC1 (single isomer, unassigned) [Example 721, 5-((R) or (S)-cyclopropyl(methylamino)methyl)-N′-((2,4,5,6-tetrahydro-1H-cyclobuta[f]inden-3-yl)carbamoyl)thiophene-2-sulfonimidamide]
2 | 6.00 to 6.70 | NS(=O)(=NC(=O)Nc1c2c(cc3c1CC3)CCC2)c1cc2c(s1)CCNC2C(F)F (single isomer, unassigned) [Example 782, (S) or (R) -4-(difluoromethyl)-N′-((2,4,5,6-tetrahydro-1H-cyclobuta[f]inden-3-yl)carbamoyl)-4,5,6,7-tetrahydrothieno[3,2-c]pyridine-2-sulfonimidamide]

same assay, conditions: Homo sapiens, THP-1, hTHP-1 assay containing 2% fetal bovine serum, Table B2, class symbols; read-out: IC50

Row | pIC50 | Structure (SMILES)
3 | 6.00 to 6.70 | CN(C)C(c1ccc(S(N)(=O)=NC(=O)Nc2c3c(cc4c2CCC4)CCC3)cc1)C(F)(F)F (single isomer, unassigned) [Example 664]

same assay, conditions: Homo sapiens, THP-1, hTHP-1 assay containing 2% fetal bovine serum, Table B2, given as bound; read-out: IC50

Row | pIC50 | Structure (SMILES)
4 | < 4.52 | CN(C)C(c1ccc(S(N)(=O)=NC(=O)Nc2c3c(cc4c2CCC4)CCC3)cc1)C(F)(F)F (single isomer, unassigned) [Example 663]

same assay, conditions: Table B3; hTHP-1 assay containing 2% fetal bovine serum, gramicidin stimulation, IL-1β readout; read-out: hTHP-1 IC50

Row | pIC50 | Structure (SMILES)
5 | 7.40 to 8.10 | NS(=O)(=NC(=O)Nc1c2c(cc3c1CC3)CCC2)c1cc2c(s1)CCNC2 (single isomer, unassigned) [Example 716]
6 | 6.00 to 6.70 | NS(=O)(=NC(=O)Nc1c2c(cc3c1CC3)CCC2)c1cc2c(s1)CCNC2 (single isomer, unassigned) [Example 717]
7 | 7.40 to 8.10 | CNC(c1ccc(S(N)(=O)=NC(=O)Nc2c3c(cc4c2CC4)CCC3)s1)C1CC1 (single isomer, unassigned) [Example 720, 5-((S) or (R)-cyclopropyl(methylamino)methyl)-N′-((2,4,5,6-tetrahydro-1H-cyclobuta[f]inden-3-yl)carbamoyl)thiophene-2-sulfonimidamide]
8 | 6.00 to 6.70 | NS(=O)(=NC(=O)Nc1c2c(cc3c1CC3)CCC2)c1cc2c(s1)CCNC2C(F)F (single isomer, unassigned) [Example 783, (R) or (S) -4-(difluoromethyl)-N′-((2,4,5,6-tetrahydro-1H-cyclobuta[f]inden-3-yl)carbamoyl)-4,5,6,7-tetrahydrothieno[3,2-c]pyridine-2-sulfonimidamide]
9 | 6.70 to 7.40 | NS(=O)(=NC(=O)Nc1c2c(cc3c1CCC3)CCC2)c1cc2c(s1)CCNC2 (single isomer, unassigned) [Example 787, (R) or (S)-N′-((1,2,3,5,6,7-hexahydro-s-indacen-4-yl)carbamoyl)-4,5,6,7-tetrahydrothieno[3,2-c]pyridine-2-sulfonimidamide]

same assay, conditions: hTHP-1 assay containing 2% fetal bovine serum, Table B2, class symbols; read-out: IC50

Row | pIC50 | Structure (SMILES)
10 | 6.00 to 6.70 | CN(C)C(c1ccc(S(N)(=O)=NC(=O)Nc2c3c(cc4c2CCC4)CCC3)cc1)C1CC1 (single isomer, unassigned) [Example 660]
11 | 6.00 to 6.70 | CN(C)C(c1ccc(S(N)(=O)=NC(=O)Nc2c3c(cc4c2CCC4)CCC3)cc1)C1CC1 (single isomer, unassigned) [Example 661]
12 | 6.00 to 6.70 | CN(C)C(c1ccc(S(N)(=O)=NC(=O)Nc2c3c(cc4c2CCC4)CCC3)cc1)C1CC1 (single isomer, unassigned) [Example 662]
13 | 6.00 to 6.70 | CN(C)C(c1ccc(S(N)(=O)=NC(=O)Nc2c3c(cc4c2CCC4)CCC3)cc1)C(F)(F)F (single isomer, unassigned) [Example 667, (S,R) or (R,R)-4-(1-(dimethylamino)-2,2,2-trifluoroethyl)-N′-((1,2,3,5,6,7-hexahydro-s-indacen-4-yl)carbamoyl) benzenesulfonimidamide]
14 | 5.30 to 6.00 | CN(C)[C@H](c1ccc([S@](N)(=O)=NC(=O)Nc2c3c(cc4c2CCC4)CCC3)cc1)C(F)(F)F (single isomer, unassigned) [Example 668, (R,R) or (S,R)-4-(1-(dimethylamino)-2,2,2-trifluoroethyl)-N′-((1,2,3,5,6,7-hexahydro-s-indacen-4-yl)carbamoyl) benzenesulfonimidamide]
15 | 7.40 to 8.10 | Cc1c(C2CC2)cc2c(c1NC(=O)N=S(N)(=O)c1sc(C(C)(C)O)cc1F)CCC2 (single isomer, unassigned) [Example 685, (R) or (S)-N′-((6-cyclopropyl-5-methyl-2,3-dihydro-1H-inden-4-yl)carbamoyl)-3-fluoro-5-(2-hydroxypropan-2-yl)thiophene-2-sulfonimidamide]
16 | 5.30 to 6.00 | Cc1c(C2CC2)cc2c(c1NC(=O)N=S(N)(=O)c1sc(C(C)(C)O)cc1F)CCC2 (single isomer, unassigned) [Example 686, (S) or (R)-N′-((6-cyclopropyl-5-methyl-2,3-dihydro-1H-inden-4-yl)carbamoyl)-3-fluoro-5-(2-hydroxypropan-2-yl)thiophene-2-sulfonimidamide]
17 | 6.70 to 7.40 | CN1CCc2sc(S(N)(=O)=NC(=O)Nc3c4c(cc5c3CCC5)CCC4)cc2C1 (single isomer, unassigned) [Example 687, (R) or (S)-N′-((1,2,3,5,6,7-hexahydro-s-indacen-4-yl)carbamoyl)-5-methyl-4,5,6,7-tetrahydrothieno [3,2-c]pyridine-2-sulfonimidamide]
18 | 5.30 to 6.00 | CN1CCc2sc(S(N)(=O)=NC(=O)Nc3c4c(cc5c3CCC5)CCC4)cc2C1 (single isomer, unassigned) [Example 688, (S) or (R)-N′-((1,2,3,5,6,7-hexahydro-s-indacen-4-yl)carbamoyl)-5-methyl-4,5,6,7-tetrahydrothieno [3,2-c]pyridine-2-sulfonimidamide]
19 | 6.70 to 7.40 | CNCc1csc(S(N)(=O)=NC(=O)Nc2c3c(cc4c2CCC4)CCC3)c1 (single isomer, unassigned) [Example 691, (R) or (S)-N′-((1,2,3,5,6,7-hexahydro-s-indacen-4-yl)carbamoyl)-4-((methylamino)methyl)thiophene-2-sulfonimidamide]
20 | 5.30 to 6.00 | CNCc1csc(S(N)(=O)=NC(=O)Nc2c3c(cc4c2CCC4)CCC3)c1 (single isomer, unassigned) [Example 692, (S) or (R)-N′-((1,2,3,5,6,7-hexahydro-s-indacen-4-yl)carbamoyl)-4-((methylamino)methyl)thiophene-2-sulfonimidamide]
21 | 6.00 to 6.70 | NS(=O)(=NC(=O)Nc1c2c(cc3c1CCC3)CCC2)c1cc2c(s1)COCC2 (single isomer, unassigned) [Example 693, (R) or (S)-N′-((1,2,3,5,6,7-hexahydro-s-indacen-4-yl)carbamoyl)-4,7-dihydro-5H-thieno[2,3-c]pyran-2-sulfonimidamide]
22 | 4.52 to 5.30 | NS(=O)(=NC(=O)Nc1c2c(cc3c1CCC3)CCC2)c1cc2c(s1)COCC2 (single isomer, unassigned) [Example 694, (S) or (R)-N′-((1,2,3,5,6,7-hexahydro-s-indacen-4-yl)carbamoyl)-4,7-dihydro-5H-thieno[2,3-c]pyran-2-sulfonimidamide]
23 | 6.70 to 7.40 | CO[C@H]1COc2c(S(N)(=O)=NC(=O)Nc3c4c(cc5c3CCC5)CCC4)cnn2C1 (single isomer, unassigned) [Example 695, (R) or (S)-(6R)-N′-((1,2,3,5,6,7-hexahydro-s-indacen-4-yl)carbamoyl)-6-methoxy-6,7-dihydro-5H-pyrazolo[5,1-b][1,3]oxazine-3-sulfonimidamide]
24 | 6.00 to 6.70 | CO[C@H]1COc2c(S(N)(=O)=NC(=O)Nc3c4c(cc5c3CCC5)CCC4)cnn2C1 (single isomer, unassigned) [Example 696, (S) or (R)-(6R)-N′-((1,2,3,5,6,7-hexahydro-s-indacen-4-yl)carbamoyl)-6-methoxy-6,7-dihydro-5H-pyrazolo[5,1-b][1,3]oxazine-3-sulfonimidamide]
25 | 6.70 to 7.40 | CN[C@H]1COc2c(S(N)(=O)=NC(=O)Nc3c4c(cc5c3CCC5)CCC4)cnn2C1 (single isomer, unassigned) [Example 697, (R) or (S)-(6R)-N′-((1,2,3,5,6,7-hexahydro-s-indacen-4-yl)carbamoyl)-6-(methylamino)-6,7-dihydro-5H-pyrazolo[5,1-b][1,3]oxazine-3-sulfonimidamide]
26 | 5.30 to 6.00 | CN[C@H]1COc2c(S(N)(=O)=NC(=O)Nc3c4c(cc5c3CCC5)CCC4)cnn2C1 (single isomer, unassigned) [Example 698, (S) or (R)-(6R)-N′-((1,2,3,5,6,7-hexahydro-s-indacen-4-yl)carbamoyl)-6-(methylamino)-6,7-dihydro-5H-pyrazolo[5,1-b][1,3]oxazine-3-sulfonimidamide]
27 | 6.70 to 7.40 | N=S(=O)(NC(=O)Nc1c2c(cc3c1CCC3)CCC2)c1nn(C(F)F)cc1F (single isomer, unassigned) [Example 710]
28 | 5.30 to 6.00 | N=S(=O)(NC(=O)Nc1c2c(cc3c1CCC3)CCC2)c1nn(C(F)F)cc1F (single isomer, unassigned) [Example 711]

same assay, conditions: hTHP-1 assay containing 2% fetal bovine serum, Table B2, given as bound; read-out: IC50

Row | pIC50 | Structure (SMILES)
29 | < 4.52 | CN(C)C(c1ccc(S(N)(=O)=NC(=O)Nc2c3c(cc4c2CCC4)CCC3)cc1)C(F)(F)F (single isomer, unassigned) [Example 665, (S,S) or (R,S)-4-(1-(dimethylamino)-2,2,2-trifluoroethyl)-N′-((1,2,3,5,6,7-hexahydro-s-indacen-4-yl)carbamoyl) benzenesulfonimidamide]
30 | < 4.52 | CN(C)C(c1ccc(S(N)(=O)=NC(=O)Nc2c3c(cc4c2CCC4)CCC3)cc1)C(F)(F)F (single isomer, unassigned) [Example 666, (R,S) or (S,S)-4-(1-(dimethylamino)-2,2,2-trifluoroethyl)-N′-((1,2,3,5,6,7-hexahydro-s-indacen-4-yl)carbamoyl) benzenesulfonimidamide]

Reference: patent publication US20230051589A1, “COMPOUNDS AND COMPOSITIONS FOR TREATING CONDITIONS ASSOCIATED WITH NLRP ACTIVITY” (Novartis AG, priority 2018, published 2023)
